Results on three compounds are retold here after patent US11286255B2, “Pyridone carboxylic acid derivative or salt thereof” (WAKUNAGA PHARMACEUTICAL CO., LTD., priority 2017, dated 2022).

The IC50 is the point on the concentration scale where inhibition reaches its midpoint.

Series [1] concerns NCI-H460 (human non-small cell lung cancer cell line). The series is described as follows: In vitro cell growth inhibition test against NCI-H460. The note with it: 72 h, NCI-H460 cells, 3 days culture, WST-8 (Cell Counting Kit-8), 50% growth inhibition concentration. It is filed as cell-based. On the procedure:
Test Example 1: In Vitro Cell Growth Inhibition Test Against NCI-H460 (Human Non-Small Cell Lung Cancer Cell Line)
An NCI-H460 cell suspension was inoculated at 4×10^3 cells/100 μL/well (0.1 mL) to a 96-well flat-bottomed multiplate using RPMI-1640 (Sigma-Aldrich Co. LLC, R8758) medium containing 10% […] (fetal bovine serum, Thermo Fisher Scientific Inc.), and cultured at 37° C. for 1 day in an incubator containing 5% carbon dioxide. The compound of the present invention was dissolved at a concentration of 1 mM in dimethyl sulfoxide and further diluted into 5.00, 2.50, 1.25, 0.63, 0.31, 0.16, 0.078, and 0.039 μM (final concentrations) using dimethyl sulfoxide and RPMI-1640 medium. Each of these dilutions was added at 0.1 mL/well to the culture plate of the NCI-H460 cells mentioned above after removal of the medium, and the cells were cultured at 37° C. for 3 days in an incubator containing 5% carbon dioxide.
After the culture, Cell Counting Kit-8 (Dojindo Laboratories), which adopts WST-8 [2-(2-methoxy-4-nitrophenyl)-3-(4-nitrophenyl)-5-(2,4-disulfophenyl)-2H-tetrazolium monosodium salt] as a chromogenic substrate, was added at 10 μL/well, and the cells were cultured under the same conditions as above for 1 hour, followed by measurement of absorbance at 450 nm. A cell survival rate was calculated in terms of 50% growth inhibition concentration (IC50 (μM)) by the least square method with that of a control group defined as 100%.
Background: Tetrazolium assays rely on reduction of a dye to a coloured formazan, in cell work by metabolically active cells.

Series [2] concerns MV4-11 (human acute myeloid leukemia cell line). The series is described as follows: In vitro cell growth inhibition test against MV4-11. It is filed as cell-based. The note with it: 72 h, MV4-11 cells, 3 days culture, WST-8 (Cell Counting Kit-8), 50% growth inhibition concentration. How it is done:
Test Example 2: In Vitro Cell Growth Inhibition Test Against MV4-11 (Human Acute Myeloid Leukemia Cell Line)
The compound of the present invention was dissolved at a concentration of 1 mM in dimethyl sulfoxide and further diluted into 10.00, 2.50, 0.625, 0.156, 0.039, 0.0098, 0.0024, and 0.00061 μM (final concentrations) using dimethyl sulfoxide and IMDM (Thermo Fisher Scientific Inc., 12440-053) medium. Each of these dilutions was added at 0.05 mL/well to a 96-well flat-bottomed multiplate. An MV4-11 cell suspension was diluted into […] using IMDM (Thermo Fisher Scientific Inc., 12440-053) medium containing […] (fetal bovine serum, Thermo Fisher Scientific Inc.), and this dilution was added at 0.05 mL/well to the compound-containing 96-well flat-bottomed multiplate mentioned above, and cultured at 37° C. for 3 days in an incubator containing 5% carbon dioxide.
After the culture, Cell Counting Kit-8 (Dojindo Laboratories), which adopts WST-8 as a chromogenic substrate, was added at 10 μL/well, and the cells were cultured under the same conditions as above for 6 hours, followed by measurement of absorbance at 450 nm. A cell survival rate was calculated in terms of 50% growth inhibition concentration (IC50 (μM)) by the least square method with that of a control group defined as 100%.

Series [3] deals with PC-3 (human prostate cancer cell line). The series is described as follows: In vivo antitumor effect test against PC-3 xenograft. Also on record: species or system female Balb/c nu-nu mouse. The note with it: PC-3 xenograft in Balb/c nu-nu mice, 20 mg/kg, IV, Q7D ×3, tumor growth inhibition vs vehicle group. On the procedure: Test Example 3: In Vivo Antitumor Effect Test Against PC-3 (Human Prostate Cancer Cell Line)
A suspension of cancer cells (1×10^7 cells/mL) prepared in RPMI culture medium (Sigma-Aldrich Co. LLC, R8758) was subcutaneously inoculated in an amount of 200 μL to the right abdomen of each female Balb/c nu-nu mouse (Charles River Laboratories Japan, Inc.). After tumor engraftment, animals having a sufficient tumor size were randomly assigned to an active (compound A or compound 078) group and a control (vehicle) group.
Each test compound (drug) was dissolved at each administration concentration in physiological saline containing 12.5 mM sodium hydroxide. The administration of the compound or a vehicle was started on the day of randomization and continued once a week for 21 days. During the test period, the body weights were measured twice a week throughout the treatment period, and tumors were measured twice a week using calipers. The tumor volumes were measured according to the expression V=L×W^2/2 (V: volume, mm3; L: length, mm; W: width, mm). Using the following expression:
% TGI=100−((Average tumor volume of the treatment group Average tumor volume of the control group)×100), tumor growth inhibition was calculated on the basis of the average tumor volume of the vehicle group.

Series [4] relates to WI-38 (human fetal lung fibroblast cell line). The series is described as follows: In vitro cell growth inhibition test against WI-38. The settings on record: WI-38 normal cells, 12.5 μM compound, 3 days culture, WST-8, control group = 100%. The format is cell-based. On the procedure:
Test Example 4: In Vitro Cell Growth Inhibition Test Against WI-38 (Human Fetal Lung Fibroblast Cell Line)
A WI-38 cell suspension was inoculated at 5×10^3 cells/100 μL/well (0.1 mL) to a 96-well flat-bottomed multiplate using DMEM (Sigma-Aldrich Co. LLC, D6429) medium containing 10% FBS (fetal bovine serum, Nichirei Biosciences Inc.), and cultured at 37° C. for 1 day in an incubator containing 5% carbon dioxide. Compound A or the compound of the present invention was dissolved at a concentration of 10 mM in dimethyl sulfoxide and further diluted into 12.5 μM (final concentration) using dimethyl sulfoxide and RPMI-1640 medium. This dilution was added at 0.1 mL/well to the culture plate of the WI-38 cells mentioned above after removal of the medium, and the cells were cultured at 37° C. for 3 days in an incubator containing 5% carbon dioxide.
After the culture, Cell Counting Kit-8 (Dojindo Laboratories), which adopts WST-8 as a chromogenic substrate, was added at 10 μL/well, and the cells were cultured under the same conditions as above for 1 hour, followed by measurement of absorbance at 450 nm. A cell survival rate was calculated with that of a control group defined as 100%.

Series [5] has as its system human cancer cells. The note with it: cited from earlier work.
The test system of series [6] is human cancer cells. The settings on record: cited from earlier work. The source holds these as a separate data set.
Series [7] concerns relapsed/refractory acute myeloid leukemia. The note with it: phase III trial, in combination with cytarabine, over-sixties; cited from earlier work.

As to `Cc1cc(N2CC(C(=O)NCC3CCCCO3)C2)nc2c1c(=O)c(C(=O)O)cn2-c1nccs1` (centres unmarked) [Example 078, 5-methyl-7-{3-[(oxan-2-ylmethyl)carbamoyl]azetidin-1-yl}-4-oxo-1-(1,3-thiazol-2-yl)-1,4-dihydro-1,8-naphthyridine-3-carboxylic acid], the IC50 in series [1] was 92 nM; in series [2] it was 1400 nM. In addition, the “% TGI” value in series [3] turned out to be 49.2%. The “Cell survival rate (%)” value in series [4] is 68%.
`CNC1CN(c2ccc3c(=O)c(C(=O)O)cn(-c4nccs4)c3n2)CC1OC` (centres unmarked) [1,4-dihydro-7-(3-methoxy-4-methylamino-1-pyrrolidinyl)-4-oxo-1-(2-thiazolyl)-1,8-naphthyridine-3-carboxylic acid]: in the series with human cancer cells [5], the “antitumor effect in vitro” value was “excellent antitumor effect”. The “antitumor effect in vivo” value in the series on human cancer cells [6] is listed as “excellent antitumor effect”. In addition, the “therapeutic effect as compared with a placebo group” value in series [7] is given as “significant therapeutic effect”.
Take `CNC1CN(c2ccc3c(=O)c(C(=O)O)cn(-c4nccs4)c3n2)CC1OC` (centres unmarked) [Compound A, 1,4-Dihydro-7-(3-methoxy-4-methylamino-1-pyrrolidinyl)-4-oxo-1-(2-thiazolyl)-1,8-naphthyridine-3-carboxylic acid, reference compound]: the half-inhibitory concentration (IC50) in series [1] turned out to be 370 nM; in series [2], 10300 nM. Further, the “% TGI” value in series [3] amounted to 21.7%. The “Cell survival rate (%)” value in series [4] is given as 26%.
